Experimental data taken from US6472415B1, “Androgen receptor suppressors in the therapy and diagnosis of prostate cancer, alopecia and other hyper-androgenic syndromes” (priority 1998, dated 2002).
“Also recorded” adds a separate entry of the source. Read-outs that look alike come from different tables or passages of the source.

What was measured:
androgen receptor = molecular target: T1, androgen receptor (Homo sapiens, UniProt P10275, T878A); test: Androgen receptor remaining in LNCaP cell lysate, Western Blot; format: cell-based; settings: for Percent of the androgen receptor remaining / Percent Androgen Receptor Remaining / Effect on the AR: LNCaP; for Percent of the androgen receptor remaining: 48 hours; for Suppression of the AR: 3 μM concentration; for Elimination of the AR: 10 μM concentration; for Percent Androgen Receptor Remaining: Table 7 controls, incubation time not given; for Effect on the AR: Western Blot
T1 construct: endogenous in cells; host or cells: LNCaP human prostate cancer cells
T1 sequence (P10275 whole entry T878A): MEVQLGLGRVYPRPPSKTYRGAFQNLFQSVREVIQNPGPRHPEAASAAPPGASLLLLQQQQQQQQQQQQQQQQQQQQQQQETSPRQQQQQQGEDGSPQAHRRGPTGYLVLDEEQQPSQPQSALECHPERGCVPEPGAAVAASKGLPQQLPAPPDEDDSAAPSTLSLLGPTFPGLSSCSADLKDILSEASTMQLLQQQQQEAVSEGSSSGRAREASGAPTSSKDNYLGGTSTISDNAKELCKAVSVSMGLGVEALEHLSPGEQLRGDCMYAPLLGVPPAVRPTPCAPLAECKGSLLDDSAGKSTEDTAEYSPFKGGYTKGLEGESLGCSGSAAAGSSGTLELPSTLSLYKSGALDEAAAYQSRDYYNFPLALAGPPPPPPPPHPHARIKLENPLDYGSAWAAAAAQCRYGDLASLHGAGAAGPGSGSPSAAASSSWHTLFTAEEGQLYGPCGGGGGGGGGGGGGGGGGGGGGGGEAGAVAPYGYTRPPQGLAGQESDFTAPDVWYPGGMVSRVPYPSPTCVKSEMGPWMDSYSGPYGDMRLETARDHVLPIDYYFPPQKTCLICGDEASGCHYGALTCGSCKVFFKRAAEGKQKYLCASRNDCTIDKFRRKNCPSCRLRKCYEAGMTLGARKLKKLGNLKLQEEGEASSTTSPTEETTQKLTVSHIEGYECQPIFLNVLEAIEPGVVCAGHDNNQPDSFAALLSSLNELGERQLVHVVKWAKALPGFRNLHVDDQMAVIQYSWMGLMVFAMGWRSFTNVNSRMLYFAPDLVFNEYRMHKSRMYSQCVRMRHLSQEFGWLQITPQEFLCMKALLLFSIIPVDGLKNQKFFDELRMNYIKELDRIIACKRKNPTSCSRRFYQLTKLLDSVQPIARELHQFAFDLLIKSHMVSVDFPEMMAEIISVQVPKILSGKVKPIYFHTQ
Protocol: The interaction of the compounds with AR was studied by incubation with LNCaP cells, subsequent cell lysis and the standard Western Blot assay.

[1] = Protocol: Compounds were tested for stability in human serum at 38° C. They were dissolved in isopropanol/H2O (95:5), mixed with human serum to a concentration of 0.5 mg/mL, and incubated at 38° C. Serum aliquots were extracted with ethyl acetate and analyzed by HPLC.
(Permadi, H.; Lundgren, B.; Andersson, K.; Sundberg, C.; DePierre, J. W. Effects of perfluoro fatty acids on peroxisome proliferation and mitochondrial size in mouse liver: dose and time factors and effect of chain length. Xenobiotica, 91993) Vol. 23, No. 7, pp.761-70).

[2] = system: prostate and seminal vesicles; test: Weight of prostate and seminal vesicles (secondary sex organs) in rats; format: in vivo; settings: for Reduction of secondary sex organs' weight: castrated rats supplemented with testosterone propionate
Protocol: (The dose of 0.1 mg/kg approximates the expected topical daily dose for humans).

[3] = Systemic toxicity, repeated i.p. injection in mice; format: in vivo; settings: for Dose with morbidity but no mortality / Dose given without mortality or morbidity: i.p. every 2nd day; for Dose given without mortality or morbidity: 5 times
Protocol: Systemic toxicity was orientationally evaluated by i.p. injection every 2nd day in mice. […] For BP-34, the corresponding values were 150 mg/kg bw and 300 mg/kg bw.
The maximum tolerated dose should thus be approximately 300 mg/kg. For BP-34, i.p. injections of 100-300 mg/kg produce no mortalities in mice. […] Therefore, the maximum tolerated dose of BP-34 should be approximately 250 mg/kg.

Remark: listed apart in the source
[4] = i.m., 75 mg/kg bw
[5] = rabbits, 2× daily 0.5 mL of 10% solution in 50/50 PEG 400/EtOH, shaved skin 20 cm^2; HPLC sensitivity 5 nanograms
androgenic alopecia = settings: three male volunteers, 1% solution in ethanol
[6] = not given; remark: listed apart in the source
[7] = isopropanol/H2O (95:5), 50° C., up to six days
[8] = Tissue distribution 4 hours after intravenous injection in male rats; settings: 300 g male rats, after 4 hours
[9] = Cockshott et al. 1990; cited from earlier work
[10] = Takagi et al. 1991; cited from earlier work
[11] = system: human prostate cancer cells LNCaP; test: XXT cell viability assay, 72 hours; format: cell-based
Protocol: After 72 hours, an XXT assay (Scudievo, et al., Cancer Research, 48:4827 (1988)) indicating cell viability was carried out.

[12] = Rabbit, skin 20 cm^2, 100 mg/d, 10 d

## CC(O)(CNC(=O)Nc1ccc(I)cc1)C(=O)Nc1ccc([N+](=O)[O-])c(C(F)(F)F)c1 (stereo not shown) [BP-754]
Androgen receptor; 3μ Molar conc.
  Percent of the androgen receptor remaining: 28%
Androgen receptor; 10μ Molar conc.
  Percent of the androgen receptor remaining: 14%

## CC(O)(CNC(=O)C(F)(F)C(F)(F)C(F)(F)F)C(=O)Nc1ccc([N+](=O)[O-])c(C(F)(F)F)c1 (stereo not shown) [BP-521, 4-nitro-3-trifluoromethyl-N-(2′-hydroxy-2′-methyl-3′-N-(heptafluorobutyramido)propionyl)aniline]
[1]; human, serum, 6 h
  Percent of the intact compound remaining in human serum: 97.5%
[1]; human, serum, 24 h
  Percent of the intact compound remaining in human serum: 90.0%
[1]; human, serum, 48 h
  Percent of the intact compound remaining in human serum: 84.0%
[1]; human, serum, 144 h
  Percent of the intact compound remaining in human serum: 60.0%
[2]; 0.1 mg/kg
  Reduction of secondary sex organs' weight: did not reduce
[2]; intact rats, 10 times subcutaneously 100 mg/kg
  Reduction of average weight of prostate and seminal vesicles: about 46%
[3]
  Dose with morbidity but no mortality: 350 mg/kg bw
  Dose given without mortality or morbidity: 200 mg/kg bw
Rabbit ~3 kg, i.p., 150 mg/kg bw, 0.5 hrs
  μg/ml blood: 1.9 µg/mL
Rabbit ~3 kg, oral, 100 mg/kg bw, 0.5 hrs
  μg/ml blood: 1.5 µg/mL
Rabbit ~3 kg, skin 20 cm^2, 100 mg/d, 10 d, 0.5 hrs
  μg/ml blood: 0 µg/mL
Rabbit, i.p., 150 mg/kg bw
  Cumulative % dose: 2.8%
  Cumulative mg/total blood volume: 11.6 µg
Rabbit, i.p., 150 mg/kg bw, 1.0 hrs
  μg/ml blood: 3.2 µg/mL
Rabbit, i.p., 150 mg/kg bw, 1.5 hrs
  μg/ml blood: 1.9 µg/mL
Rabbit, i.p., 150 mg/kg bw, 2.5 hrs
  μg/ml blood: 1.5 µg/mL
Rabbit, i.p., 150 mg/kg bw, 7.0 hrs
  μg/ml blood: 3.0 µg/mL
Rabbit, i.p., 150 mg/kg bw, 24 hrs
  μg/ml blood: 2.2 µg/mL
Rabbit, oral, 100 mg/kg bw
  Cumulative % dose: 1.50%
  Cumulative mg/total blood volume: 3.0 µg
Rabbit, oral, 100 mg/kg bw, 1.0 hrs
  μg/ml blood: 1.7 µg/mL
Rabbit, oral, 100 mg/kg bw, 1.5 hrs
  μg/ml blood: 2.6 µg/mL
Rabbit, oral, 100 mg/kg bw, 2.5 hrs
  μg/ml blood: 1.5 µg/mL
Rabbit, oral, 100 mg/kg bw, 7.0 hrs
  μg/ml blood: 1.0 µg/mL
Rabbit, oral, 100 mg/kg bw, 24 hrs
  μg/ml blood: 1.0 µg/mL
[12]
  Cumulative % dose: 0%
  Cumulative mg/total blood volume: 0 µg
Rabbit, skin 20 cm^2, 100 mg/d, 10 d, 1.0 hrs
  μg/ml blood: 0 µg/mL
Rabbit, skin 20 cm^2, 100 mg/d, 10 d, 1.5 hrs
  μg/ml blood: 0 µg/mL
Rabbit, skin 20 cm^2, 100 mg/d, 10 d, 2.5 hrs
  μg/ml blood: 0 µg/mL
Rabbit, skin 20 cm^2, 100 mg/d, 10 d, 7.0 hrs
  μg/ml blood: 0 µg/mL
Rabbit, skin 20 cm^2, 100 mg/d, 10 d, 24 hrs
  μg/ml blood: 0 µg/mL
From the subcutaneous, muscle and intraperitoneal spaces
  Bioavailability: low
Oral test
  Peak serum levels as % of the injected dose: 0.0052%
[4]; Rat ~140 g, 0.5 hrs
  μg/ml blood: 0.7 µg/mL
[4]; Rat
  Cumulative % dose: 2.9%
  Cumulative mg/total blood volume: 2.1 µg
[4]; Rat, 1.0 hrs
  μg/ml blood: 4.7 µg/mL
[4]; Rat, 1.5 hrs
  μg/ml blood: 2.2 µg/mL
[4]; Rat, 24 hrs
  μg/ml blood: 1.0 µg/mL
[5]
  Topical absorption: No absorption was found
Androgenic alopecia; 0.5 mL twice daily on scalp
  Effect on incipient androgenic alopecia of the forehead line: effectively arrested incipient androgenic alopecia
Androgenic alopecia; 0.5 mL twice daily, after 8 weeks
  Hair growth: induced copious growth of vellum hair

## CC(O)(CNCC(C)(O)C(=O)Nc1ccc(Cl)cc1)C(=O)Nc1ccc(Cl)cc1 (stereo not shown)
[6]
  melting point: 76 to 78 °C

## CC(O)(CNC(=S)Nc1ccc(Br)cc1)C(=O)Nc1ccc([N+](=O)[O-])c(C(F)(F)F)c1 (stereo not shown) [BP-668, 3-((((4-bromophenyl)amino)thioxomethyl)amino)-2-hydroxy-2-methyl-N-(4-nitro-3-(trifluoromethyl)phenyl)propanamide]
[1]; 38° C., 0.5 mg/mL, 24 h
  Percent of the intact compound remaining in human serum: 100%
[1]; 38° C., 0.5 mg/mL, 48 h
  Percent of the intact compound remaining in human serum: 100%
[1]; 38° C., 0.5 mg/mL, 6 d
  Percent of the intact compound remaining in human serum: 100%
Androgen receptor
  Suppression of the AR: important suppression
  Elimination of the AR: practically eliminated the AR
Androgen receptor; 3μ Molar conc.
  Percent of the androgen receptor remaining: 73%
Androgen receptor; 10μ Molar conc.
  Percent of the androgen receptor remaining: 0%
[2]; 0.1 mg/kg
  Reduction of secondary sex organs' weight: did not reduce
[6]
  melting point: 192 to 195 °C
[7]
  Change via HPLC in accelerated stability study: no change was observed

## CC(O)(COC/C=C/[125I])C(=O)Nc1ccc(C#N)c(C(F)(F)F)c1 (stereo not shown) [BP-636]
[8]
  Accumulation in the prostate vis-a-vis other tissues: substantial accumulation in the prostate

## CC(O)(CS(=O)(=O)c1ccc(F)cc1)C(=O)Nc1ccc(C#N)c(C(F)(F)F)c1 (stereo not shown) [Bicalutamide, reference compound]
[2]; 0.5 mg/kg
  Reduction of secondary sex organs' weight: about 20%
[9]
  Peak serum levels as % of the dose, reported: 0.03%

## CC(O)(CSCC=C([125I])[125I])C(=O)Nc1ccc(C#N)c(C(F)(F)F)c1 (stereo not shown) [BP-554]
[8]
  Accumulation in the prostate vis-a-vis other tissues: substantial accumulation in the prostate

## CCCNC(=S)Nc1ccc(C#N)c(C(F)(F)F)c1 [BP-735, N-(3-trifluoromethyl-4-cyanophenyl), N′-propyl thiourea]
Androgen receptor
  Suppression of the AR: important suppression
  Elimination of the AR: practically eliminated the AR
Androgen receptor; 3μ Molar conc.
  Percent of the androgen receptor remaining: 45%
Androgen receptor; 10μ Molar conc.
  Percent of the androgen receptor remaining: 1%

## O=C(O)C(F)(F)C(F)(F)C(F)(F)F [perfluorobutyric acid]
[10]
  Toxicity: low toxicity

## CC(C)(O)C(=O)Nc1ccc([N+](=O)[O-])c(C(F)(F)F)c1 [Hydroxyflutamide, reference compound]
Androgen receptor; 3μ Molar conc
  Percent Androgen Receptor Remaining: 98%
Androgen receptor; 3μ Molar conc.
  Percent of the androgen receptor remaining: 98%
Androgen receptor; 10μ Molar conc
  Percent Androgen Receptor Remaining: 94%
Androgen receptor; 10μ Molar conc.
  Percent of the androgen receptor remaining: 94%
Androgen receptor
  Effect on the AR: have not shown any significant effect on the AR; also recorded: have not shown any significant suppression of the AR

## CC(O)(CN)C(=O)Nc1ccc([N+](=O)[O-])c(C(F)(F)F)c1 (stereo not shown) [BP-34, 4-nitro-3-trifluoromethyl-N-(2-hydroxy-2-methyl-3-aminopropionyl)aniline]
[11]
  Effect on the LNCaP cells: no effect
Androgen receptor; 3μ Molar conc
  Percent Androgen Receptor Remaining: 97%
Androgen receptor; 3μ Molar conc.
  Percent of the androgen receptor remaining: 97%
Androgen receptor; 10μ Molar conc
  Percent Androgen Receptor Remaining: 98%
Androgen receptor; 10μ Molar conc.
  Percent of the androgen receptor remaining: 98%
Androgen receptor
  Effect on the AR: no effect
[3]; i.p.
  Dose with morbidity, but not mortality: 300 mg/kg
  i.p. doses producing no mortalities: 100 to 300 mg/kg
[3]
  Dose with morbidity but no mortality: 300 mg/kg bw
  Dose given without mortality or morbidity: 150 mg/kg bw
[3]; mouse, in vivo, ip, read-out: Maximum tolerated dose
  MTD: ~250 mg/kg

## CC(O)(CNCC(C)(O)C(=O)Nc1ccc([N+](=O)[O-])c(C(F)(F)F)c1)C(=O)Nc1ccc([N+](=O)[O-])c(C(F)(F)F)c1 (stereo not shown) [BP-673, 2-hydroxy-3-((2-hydroxy-2-(N-(4-nitro-3-(trifluoromethyl)phenyl)carbamoyl)propyl)amino)-2-methyl-N-(4-nitro-3-(trifluoromethyl)phenyl)propionamide]
[1]; 38° C., 0.5 mg/mL, 24 h
  Percent of the intact compound remaining in human serum: 100%
[1]; 38° C., 0.5 mg/mL, 48 h
  Percent of the intact compound remaining in human serum: 100%
[1]; 38° C., 0.5 mg/mL, 6 d
  Percent of the intact compound remaining in human serum: 100%
Androgen receptor
  Suppression of the AR: important suppression
  Elimination of the AR: practically eliminated the AR
Androgen receptor; 3μ Molar conc.
  Percent of the androgen receptor remaining: 74%
Androgen receptor; 10μ Molar conc.
  Percent of the androgen receptor remaining: 3%
[7]
  Change via HPLC in accelerated stability study: no change was observed

## CC(O)(CNCCOCCOCCNCC(C)(O)C(=O)Nc1ccc([N+](=O)[O-])c(C(F)(F)F)c1)C(=O)Nc1ccc([N+](=O)[O-])c(C(F)(F)F)c1 (stereo not shown) [BP-676]
Androgen receptor; 3μ Molar conc.
  Percent of the androgen receptor remaining: 64%
Androgen receptor; 10μ Molar conc.
  Percent of the androgen receptor remaining: 20%
